pIC50, pKi: −log10 of the molar value.
Experiments:
Estrogen receptor beta = Estrogen receptor beta (Homo sapiens, UniProt Q92731); conditions: sf9; further: in other assays of this panel Not Active means under 50% inhibition at 10 µM
[1] = target: T1, C-X-C chemokine receptor type 2 (Homo sapiens, UniProt P25025); type: cell membranes, Membrane; conditions: cho-k1; further: in other assays of this panel Not Active means under 50% inhibition at 10 µM
T1 sequence (P25025 whole entry): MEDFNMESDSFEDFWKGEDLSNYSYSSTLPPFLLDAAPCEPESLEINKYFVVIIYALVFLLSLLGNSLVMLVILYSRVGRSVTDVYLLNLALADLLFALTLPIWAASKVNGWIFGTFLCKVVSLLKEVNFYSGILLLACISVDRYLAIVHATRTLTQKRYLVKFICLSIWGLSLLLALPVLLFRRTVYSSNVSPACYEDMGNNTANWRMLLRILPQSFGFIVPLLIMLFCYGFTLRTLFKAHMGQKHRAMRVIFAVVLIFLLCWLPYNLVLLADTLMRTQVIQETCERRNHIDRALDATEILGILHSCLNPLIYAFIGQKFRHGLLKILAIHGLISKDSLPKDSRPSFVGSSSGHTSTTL

[2] = DRUGMATRIX: Tumor Necrosis Factor (TNF), Non-Selective radioligand binding (ligand: [125I] TNF-alpha); type: cell membranes, Membrane; conditions: u-937; Not Active = under 50% inhibition at 10 µM
[3] = target: Protein kinase C alpha type (Homo sapiens, UniProt P17252); type: cell-based; conditions: sf9;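 further: inhibition of PKCalpha kinase activity measured in an enzyme assay with histone as the phosphorylation substrate; in other assays of this panel Not Active means under 50% inhibition at 10 µM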
Leukotriene C4 synthase = target: T2, Leukotriene C4 synthase (Cavia porcellus, UniProt A6XA80); assay: biochemical; type: tissue-based, Lung;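 further: enzyme inhibition assay of leukotriene C4 synthase, using LTA4 as the substrate; in other assays of this panel Not Active means under 50% inhibition at 10 µM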
T2 sequence (A6XA80 whole entry): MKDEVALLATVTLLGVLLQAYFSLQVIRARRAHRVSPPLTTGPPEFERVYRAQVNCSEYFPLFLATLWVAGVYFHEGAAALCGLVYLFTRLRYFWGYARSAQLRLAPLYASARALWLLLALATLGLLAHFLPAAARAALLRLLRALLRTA

[4] = DRUGMATRIX: Glutamate, NMDA, Phencyclidine radioligand binding (ligand: [3H] TCP); type: cell membranes, Rattus norvegicus, Wistar, Cerebral cortex, Membrane; conditions: Not Active = under 50% inhibition at 10 µM
[5] = target: Platelet-activating factor receptor (Homo sapiens, UniProt P25105); assay: biochemical; type: tissue-based; conditions: platelet; further: in other assays of this panel Not Active means under 50% inhibition at 10 µM
[6] = target: T3, Muscarinic acetylcholine receptor M5 (Homo sapiens, UniProt P08912); type: cell membranes, CHO-K1, Membrane; conditions: for IC50: cho-k1
T3 sequence (P08912 whole entry): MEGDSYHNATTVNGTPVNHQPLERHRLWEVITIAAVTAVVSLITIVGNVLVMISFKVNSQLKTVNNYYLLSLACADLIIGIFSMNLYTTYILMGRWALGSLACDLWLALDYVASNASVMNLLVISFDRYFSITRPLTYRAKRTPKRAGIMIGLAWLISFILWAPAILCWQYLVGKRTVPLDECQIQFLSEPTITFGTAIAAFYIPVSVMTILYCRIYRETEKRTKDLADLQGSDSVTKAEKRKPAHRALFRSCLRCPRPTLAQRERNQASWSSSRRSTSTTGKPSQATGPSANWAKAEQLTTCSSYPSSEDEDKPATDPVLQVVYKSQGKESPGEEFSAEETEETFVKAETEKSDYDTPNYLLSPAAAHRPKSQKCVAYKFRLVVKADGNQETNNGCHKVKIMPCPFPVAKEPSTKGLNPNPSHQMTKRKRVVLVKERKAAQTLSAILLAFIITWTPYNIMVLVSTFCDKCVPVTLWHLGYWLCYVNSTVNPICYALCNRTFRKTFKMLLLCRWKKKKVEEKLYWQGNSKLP

[7] = DRUGMATRIX: Platelet-Derived Growth Factor (PDGF) radioligand binding (ligand: [125I] PDGF); type: cell-based; conditions: nih3t3; Not Active = under 50% inhibition at 10 µM
[8] = target: 5-hydroxytryptamine receptor 4 (Cavia porcellus, UniProt O70528); type: cell membranes, Dunkin-Hartley, Striatum, Membrane; further: in other assays of this panel Not Active means under 50% inhibition at 10 µM
5-hydroxytryptamine receptor 4, sequence (O70528 whole entry): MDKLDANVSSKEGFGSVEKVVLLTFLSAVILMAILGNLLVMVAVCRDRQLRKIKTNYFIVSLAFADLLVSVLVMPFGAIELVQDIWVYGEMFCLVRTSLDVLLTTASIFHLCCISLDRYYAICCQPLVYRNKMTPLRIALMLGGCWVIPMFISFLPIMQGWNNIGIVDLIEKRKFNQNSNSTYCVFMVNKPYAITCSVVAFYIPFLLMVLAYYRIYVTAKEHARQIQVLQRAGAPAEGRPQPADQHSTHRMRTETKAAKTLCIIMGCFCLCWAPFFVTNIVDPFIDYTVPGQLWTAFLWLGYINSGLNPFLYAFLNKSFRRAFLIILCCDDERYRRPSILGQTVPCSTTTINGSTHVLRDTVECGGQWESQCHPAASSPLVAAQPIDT

[9] = target: Sigma non-opioid intracellular receptor 1 (Homo sapiens, UniProt Q99720); assay: DRUGMATRIX: Sigma1 radioligand binding (ligand: [3H] Haloperidol); type: cell membranes, Jurkat, Membrane; conditions: jurkat; Not Active = under 50% inhibition at 10 µM
Sigma non-opioid intracellular receptor 1, sequence (Q99720 whole entry): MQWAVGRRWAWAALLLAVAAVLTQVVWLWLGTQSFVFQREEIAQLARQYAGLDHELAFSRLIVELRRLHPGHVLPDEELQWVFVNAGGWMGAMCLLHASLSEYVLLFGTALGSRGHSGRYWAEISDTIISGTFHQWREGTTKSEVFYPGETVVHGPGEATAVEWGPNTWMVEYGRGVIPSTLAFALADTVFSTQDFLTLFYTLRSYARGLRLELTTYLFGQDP

Nitric oxide synthase 1 = Nitric oxide synthase 1 (Rattus norvegicus, UniProt P29476); type: tissue-based, Cerebellum; further: in other assays of this panel Not Active means under 50% inhibition at 10 µM
Nitric oxide synthase 1, sequence (P29476 whole entry): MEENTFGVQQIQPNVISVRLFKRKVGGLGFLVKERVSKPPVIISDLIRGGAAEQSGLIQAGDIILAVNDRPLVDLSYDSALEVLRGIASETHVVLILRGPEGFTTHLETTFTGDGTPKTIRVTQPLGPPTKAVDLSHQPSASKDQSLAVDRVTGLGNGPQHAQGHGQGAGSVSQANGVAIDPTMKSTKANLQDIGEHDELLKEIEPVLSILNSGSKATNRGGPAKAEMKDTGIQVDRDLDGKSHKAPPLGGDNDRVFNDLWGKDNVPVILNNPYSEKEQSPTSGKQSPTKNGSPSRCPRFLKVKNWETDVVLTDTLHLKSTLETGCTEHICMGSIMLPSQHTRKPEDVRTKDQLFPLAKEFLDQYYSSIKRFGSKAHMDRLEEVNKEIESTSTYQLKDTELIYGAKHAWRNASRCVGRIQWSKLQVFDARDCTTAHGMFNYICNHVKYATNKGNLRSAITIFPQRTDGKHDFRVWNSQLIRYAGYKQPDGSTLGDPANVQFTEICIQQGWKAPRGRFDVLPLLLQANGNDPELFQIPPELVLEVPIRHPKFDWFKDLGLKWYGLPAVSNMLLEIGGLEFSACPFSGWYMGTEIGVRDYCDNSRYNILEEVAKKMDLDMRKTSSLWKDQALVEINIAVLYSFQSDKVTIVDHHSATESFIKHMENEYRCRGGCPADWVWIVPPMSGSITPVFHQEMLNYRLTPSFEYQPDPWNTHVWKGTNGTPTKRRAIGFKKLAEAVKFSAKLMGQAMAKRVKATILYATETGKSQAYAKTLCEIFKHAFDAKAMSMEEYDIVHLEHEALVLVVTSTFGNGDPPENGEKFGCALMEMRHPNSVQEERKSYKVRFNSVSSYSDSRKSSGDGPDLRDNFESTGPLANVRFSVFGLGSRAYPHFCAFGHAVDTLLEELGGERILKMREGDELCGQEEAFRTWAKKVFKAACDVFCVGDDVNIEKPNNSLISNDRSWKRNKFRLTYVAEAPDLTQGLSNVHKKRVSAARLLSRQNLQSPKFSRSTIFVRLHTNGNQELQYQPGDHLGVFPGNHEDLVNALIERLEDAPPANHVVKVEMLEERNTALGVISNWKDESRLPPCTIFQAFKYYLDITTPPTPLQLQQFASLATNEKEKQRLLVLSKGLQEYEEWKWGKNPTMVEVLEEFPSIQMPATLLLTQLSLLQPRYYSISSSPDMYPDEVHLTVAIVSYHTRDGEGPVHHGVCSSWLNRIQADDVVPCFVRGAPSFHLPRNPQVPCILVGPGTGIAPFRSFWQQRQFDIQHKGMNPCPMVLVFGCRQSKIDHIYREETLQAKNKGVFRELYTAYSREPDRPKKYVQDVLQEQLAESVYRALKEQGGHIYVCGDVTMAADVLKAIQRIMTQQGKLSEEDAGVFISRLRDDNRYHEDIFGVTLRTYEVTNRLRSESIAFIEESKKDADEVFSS

[10] = target: Epidermal growth factor receptor (Homo sapiens, UniProt P00533); assay: DRUGMATRIX: Protein Tyrosine Kinase, EGF Receptor enzyme inhibition (substrate: Poly(Glu:Tyr)); type: cell-based, Insect cells; conditions: insect cells; Not Active = under 50% inhibition at 10 µM
Epidermal growth factor receptor, sequence (P00533 whole entry): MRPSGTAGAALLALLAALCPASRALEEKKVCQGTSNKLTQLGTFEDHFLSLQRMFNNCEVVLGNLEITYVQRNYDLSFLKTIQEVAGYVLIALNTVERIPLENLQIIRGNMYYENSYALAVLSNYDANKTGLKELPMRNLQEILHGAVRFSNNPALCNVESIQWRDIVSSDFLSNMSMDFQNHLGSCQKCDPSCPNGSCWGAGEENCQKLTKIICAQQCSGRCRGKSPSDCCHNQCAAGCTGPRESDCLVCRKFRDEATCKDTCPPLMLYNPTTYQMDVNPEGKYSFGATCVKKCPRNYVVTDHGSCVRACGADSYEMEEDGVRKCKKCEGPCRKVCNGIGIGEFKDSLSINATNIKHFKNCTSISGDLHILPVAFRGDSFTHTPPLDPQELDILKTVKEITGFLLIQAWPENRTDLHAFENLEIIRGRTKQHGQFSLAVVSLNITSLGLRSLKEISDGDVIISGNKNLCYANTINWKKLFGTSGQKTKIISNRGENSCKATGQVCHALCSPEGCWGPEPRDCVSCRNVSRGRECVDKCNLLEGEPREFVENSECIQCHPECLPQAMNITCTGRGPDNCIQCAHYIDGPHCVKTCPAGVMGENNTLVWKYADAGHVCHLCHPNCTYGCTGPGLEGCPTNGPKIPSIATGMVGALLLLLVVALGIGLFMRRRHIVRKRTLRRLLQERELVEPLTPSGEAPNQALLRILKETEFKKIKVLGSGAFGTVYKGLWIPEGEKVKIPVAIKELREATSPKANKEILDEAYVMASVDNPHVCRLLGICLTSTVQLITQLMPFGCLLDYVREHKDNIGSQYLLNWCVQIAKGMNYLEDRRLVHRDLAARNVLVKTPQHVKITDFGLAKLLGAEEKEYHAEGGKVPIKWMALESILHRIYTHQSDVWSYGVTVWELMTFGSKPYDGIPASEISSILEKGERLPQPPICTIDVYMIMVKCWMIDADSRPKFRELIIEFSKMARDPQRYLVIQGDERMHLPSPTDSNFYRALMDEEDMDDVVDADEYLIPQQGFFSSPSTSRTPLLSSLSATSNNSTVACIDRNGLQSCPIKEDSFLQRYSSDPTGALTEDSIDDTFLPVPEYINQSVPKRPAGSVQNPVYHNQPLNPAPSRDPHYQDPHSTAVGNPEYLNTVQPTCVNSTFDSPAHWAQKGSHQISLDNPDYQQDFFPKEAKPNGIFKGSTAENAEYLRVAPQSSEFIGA

Cytochrome P450 2C9 = Cytochrome P450 2C9 (Homo sapiens, UniProt P11712); conditions: bti-tn-5b1-4; further: in other assays of this panel Not Active means under 50% inhibition at 10 µM
Cytochrome P450 2D6 = Cytochrome P450 2D6 (Homo sapiens, UniProt P10635); conditions: bti-tn-5b1-4; further: in other assays of this panel Not Active means under 50% inhibition at 10 µM
Cytochrome P450 2D6, sequence (P10635 whole entry): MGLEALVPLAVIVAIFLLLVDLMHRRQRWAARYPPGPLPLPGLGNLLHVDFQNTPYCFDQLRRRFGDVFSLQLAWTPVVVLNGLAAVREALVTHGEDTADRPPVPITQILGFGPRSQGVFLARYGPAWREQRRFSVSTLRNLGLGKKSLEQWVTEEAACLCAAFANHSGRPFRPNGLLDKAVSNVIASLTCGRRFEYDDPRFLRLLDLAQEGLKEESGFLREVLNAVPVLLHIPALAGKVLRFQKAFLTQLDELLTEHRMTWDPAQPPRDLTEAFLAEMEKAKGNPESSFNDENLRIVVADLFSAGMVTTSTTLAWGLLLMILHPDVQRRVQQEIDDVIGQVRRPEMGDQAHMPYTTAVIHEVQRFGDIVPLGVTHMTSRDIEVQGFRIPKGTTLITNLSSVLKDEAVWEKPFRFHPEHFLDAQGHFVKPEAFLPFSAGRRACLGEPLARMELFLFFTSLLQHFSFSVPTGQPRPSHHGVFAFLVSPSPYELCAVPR

Estrogen receptor beta, sequence (Q92731 whole entry): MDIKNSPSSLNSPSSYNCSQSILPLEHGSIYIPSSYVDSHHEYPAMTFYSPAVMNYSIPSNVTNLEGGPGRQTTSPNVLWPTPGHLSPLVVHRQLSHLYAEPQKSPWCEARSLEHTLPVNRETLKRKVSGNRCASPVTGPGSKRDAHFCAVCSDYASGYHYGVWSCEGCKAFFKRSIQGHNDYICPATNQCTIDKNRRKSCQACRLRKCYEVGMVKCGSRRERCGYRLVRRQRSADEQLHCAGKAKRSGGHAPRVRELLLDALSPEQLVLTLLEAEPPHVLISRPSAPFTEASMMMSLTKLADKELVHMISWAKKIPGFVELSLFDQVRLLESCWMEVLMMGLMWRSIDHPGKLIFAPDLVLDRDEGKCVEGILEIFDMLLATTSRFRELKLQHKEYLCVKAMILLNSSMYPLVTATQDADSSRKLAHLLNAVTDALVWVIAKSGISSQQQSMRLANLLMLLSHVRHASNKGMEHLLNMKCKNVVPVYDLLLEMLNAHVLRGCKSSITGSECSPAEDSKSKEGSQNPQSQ

| SMILES | IC50 (Estrogen receptor beta) | IC50 [1] | IC50 [2] | Ki [2] | IC50 [3] | IC50 (Leukotriene C4 synthase) | IC50 [4] | Ki [4] | IC50 [5] | IC50 [6] | IC50 [7] | Ki [7] | IC50 [8] | IC50 [9] | IC50 (Nitric oxide synthase 1) | IC50 [10] | IC50 (Cytochrome P450 2D6) | Ki (Cytochrome P450 2D6) | further results |
| --- | --- | --- | --- | --- | --- | --- | --- | --- | --- | --- | --- | --- | --- | --- | --- | --- | --- | --- | --- |
| CC(C)NC[C@H](O)COc1cccc2[nH]ccc12 | Not Active | Not Active | Not Active | Not Active | Not Active | Not Active | Not Active | Not Active | Not Active | Not Active | Not Active | Not Active | Not Active | Not Active | Not Active | Not Active | – | – | – |
| CCCCCCCCCc1ccc(O)cc1 [4-NONYLPHENOL] | Not Active | Not Active | Not Active | Not Active | Not Active | Not Active | Not Active | Not Active | Not Active | – | Not Active | Not Active | Not Active | Not Active | Not Active | Not Active | Not Active | Not Active | IC50 (Cytochrome P450 2C9): Not Active; Ki (Cytochrome P450 2C9): Not Active |
| O=c1cc(-c2ccccc2)oc2c1ccc1ccccc12 [ALPHA-NAPHTHOFLAVONE] | Not Active | Not Active | Not Active | Not Active | Not Active | Not Active | Not Active | Not Active | Not Active | Not Active | Not Active | Not Active | Not Active | – | Not Active | Not Active | Not Active | Not Active | IC50 (Cytochrome P450 2C9): Not Active; Ki (Cytochrome P450 2C9): Not Active |
| CCCCOC(=O)c1ccc(N)cc1 [BUTAMBEN] | Not Active | Not Active | Not Active | Not Active | Not Active | Not Active | Not Active | Not Active | Not Active | Not Active | Not Active | Not Active | Not Active | Not Active | Not Active | Not Active | – | – | – |
| O=C1CCc2cc(OCCCCc3nnnn3C3CCCCC3)ccc2N1 [CILOSTAZOL] | Not Active | Not Active | Not Active | Not Active | Not Active | Not Active | Not Active | Not Active | Not Active | Not Active | Not Active | Not Active | Not Active | Not Active | Not Active | Not Active | Not Active | Not Active | – |
| O=C(O)c1cn(C2CC2)c2cc(N3CCNCC3)c(F)cc2c1=O [CIPROFLOXACIN] | Not Active | Not Active | Not Active | Not Active | Not Active | Not Active | Not Active | Not Active | Not Active | Not Active | Not Active | Not Active | Not Active | Not Active | Not Active | Not Active | – | – | – |
| O=C1OCCN1/N=C/c1ccc([N+](=O)[O-])o1 [FURAZOLIDONE] | Not Active | Not Active | Not Active | Not Active | Not Active | Not Active | Not Active | Not Active | Not Active | Not Active | Not Active | Not Active | Not Active | Not Active | Not Active | Not Active | – | – | – |
| NCC(=O)O [GLYCINE] | Not Active | Not Active | Not Active | Not Active | Not Active | Not Active | Not Active | Not Active | Not Active | Not Active | Not Active | Not Active | Not Active | Not Active | Not Active | Not Active | – | – | – |
| CN1CCC[C@H]1c1cccnc1 [NICOTINE] | Not Active | Not Active | Not Active | Not Active | Not Active | Not Active | Not Active | Not Active | Not Active | Not Active | Not Active | Not Active | Not Active | Not Active | Not Active | Not Active | Not Active | Not Active | – |
| CNCCC=C1c2ccccc2CCc2ccccc21 [NORTRIPTYLINE] | Not Active | Not Active | Not Active | Not Active | Not Active | Not Active | Not Active | Not Active | Not Active | – | Not Active | Not Active | Not Active | Not Active | Not Active | Not Active | – | – | IC50 (Cytochrome P450 2C9): Not Active; Ki (Cytochrome P450 2C9): Not Active; pIC50 ([6]; read-out: IC50): 7.57; pKi ([6]; read-out: Ki): 7.70 |
| Oc1cccc2cccnc12 [OXYQUINOLINE] | Not Active | Not Active | Not Active | Not Active | Not Active | Not Active | Not Active | Not Active | Not Active | Not Active | Not Active | Not Active | Not Active | Not Active | Not Active | Not Active | Not Active | Not Active | – |

Source: ChEMBL document CHEMBL1909046, “DrugMatrix in vitro pharmacology data”
